Measurements published in article PMC5460155 (ACS chemical neuroscience, 2017).
Changes are numbered by the printed parent chain. “Also recorded” adds a separate entry of the source.

Legend:
[1] = system: 68 GPCRs, ion channels, and transporters; test: Eurofin Lead Profiling radioligand binding panel; conditions: 10 μM, 68 targets
mouse M1 [2] = target: T1, mouse M1 (Mus musculus, UniProt P12657); test: Mouse M1 agonist activity, calcium mobilization; format: cell-based
T1 sequence (P12657 1-460): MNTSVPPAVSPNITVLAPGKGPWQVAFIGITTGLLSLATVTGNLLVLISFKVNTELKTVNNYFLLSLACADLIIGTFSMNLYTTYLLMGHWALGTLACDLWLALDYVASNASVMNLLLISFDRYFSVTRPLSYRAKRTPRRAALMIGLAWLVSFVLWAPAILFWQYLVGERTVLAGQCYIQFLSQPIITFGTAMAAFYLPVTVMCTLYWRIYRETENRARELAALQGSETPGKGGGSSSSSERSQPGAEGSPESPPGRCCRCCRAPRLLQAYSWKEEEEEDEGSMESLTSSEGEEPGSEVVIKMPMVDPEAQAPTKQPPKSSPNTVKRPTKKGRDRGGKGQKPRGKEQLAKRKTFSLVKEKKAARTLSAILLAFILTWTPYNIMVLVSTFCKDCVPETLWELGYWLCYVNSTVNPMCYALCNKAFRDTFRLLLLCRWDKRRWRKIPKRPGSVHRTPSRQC

C57Bl/6 mice [3] = test: Spontaneous locomotor activity; format: in vivo, mouse; conditions: 1–10 mg/kg i.p.
C57Bl/6 mice [4] = test: Behavioral convulsions, modified Racine scale; format: in vivo, mouse; conditions: 100 mg/kg i.p., 3 h, modified Racine scale (0–5)
[5] = Mouse brain:plasma partition, discrete i.p. dose; conditions: male, C57BL/6J, in vivo, ip, 10 mg/kg
mouse M1 [6] = target: T1, mouse M1; test: Calcium mobilization, mM1-CHO cells, PAM mode; format: cell-based
[7] = Mouse brain concentrations after i.p. dosing; format: in vivo; conditions: 100 mg/kg i.p., mice
M1 [8] = target: T2, M1 (Homo sapiens, UniProt P11229); test: Discover X bias panel: β-arrestin recruitment assay; format: cell-based
T2 sequence (P11229 1-460): T1 sequence (P12657 1-460) with V5A, S254T, K320R, G337A, V413I

rats = test: Novel object recognition task; format: in vivo, rat; conditions: rats, 1, 3, and 10 mg/kg i.p., 30 min pretreatment, assessed 24 h later
hM1 = target: T3, hM1 (Homo sapiens, UniProt P11229); test: Acetylcholine affinity shift at hM1; format: binding
T3 sequence (P11229 1-460): T1 sequence (P12657 1-460) with V5A, S254T, K320R, G337A, V413I

SD rats = test: Amphetamine-induced hyperlocomotion in rats; format: in vivo, rat; conditions: 30 mg/kg i.p., amphetamine 1 mg/kg s.c.
M1 [9] = target: T2, M1; test: Calcium mobilization, hM1-CHO cells, agonist mode; format: cell-based
M1 [10] = target: T2, M1; test: Calcium mobilization, hM1-CHO cells, PAM mode; format: cell-based
M1 [11] = target: T2, M1; test: [3H]-NMS competition binding, human M1 membranes
mice [12] = test: Modified Irwin Toxicology Battery; format: in vivo; conditions: 100 mg/kg i.p.
rat M1 [13] = target: T4, rat M1 (Rattus norvegicus, UniProt P08482); test: Calcium mobilization, rM1-CHO cells, PAM mode; format: cell-based; conditions: EC20 acetylcholine
T4 sequence (P08482 1-460): T1 sequence (P12657 1-460) with P309S

rat M1 [14] = target: T4, rat M1; test: Calcium mobilization, rM1-CHO cells, agonist mode; format: cell-based
mice [15] = test: Amphetamine-induced hyperlocomotion in mice; format: in vivo, mouse; conditions: 1–10 mg/kg i.p., amphetamine 3 mg/kg s.c.
M1 [16] = target: T2, M1; test: Discover X bias panel: M1 receptor internalization; format: cell-based
mice [17] = conditions: cited from earlier work

## Cn1cc(-c2ccc(Cn3cc(C(=O)N[C@H]4CCCC[C@@H]4O)c4c(F)cc(F)cc43)cn2)cn1 [Compound 28a, 4,6-Difluoro-N-(1S,2S)-2-hydroxycyclohexyl-1-((6-(1-methyl-1H-pyrazol-4-yl)pyridine-3-yl)methyl)-1H-indole-3-carboxamide]
[1]
  percent inhibition in ancillary pharmacology panel: ≤ 50%
Mouse M1 [2]
  EC50: 450 nM
Mouse M1 [2]; agonist activity at mouse M1
  mouse M1 agonist % ACh Max: 86%
C57Bl/6 mice [3]
  effect on spontaneous (basal) locomotor activity: significantly less effect on spontaneous locomotor activity
C57Bl/6 mice [3]; listed as VU6004256
  effect on spontaneous (basal) locomotor activity: decreased locomotor activity at the highest dose of 10 mg/kg
C57Bl/6 mice [4]
  behavioral convulsions: did not display observable behavioral seizure activity; also recorded: neither difluoro indole 28a nor 28c (both regioisomeric N-Me pyrazoles) induced behavioral convulsions
[5]
  Kp at 0.25 h: 4.84
  Kp uu at 0.25 h: 2.61
Mouse M1 [6]
  EC50: 155 nM
Mouse M1 [6]; PAM mode, mM1-CHO cells, EC20 acetylcholine, ± SEM
  mACh Max (%): 79 ± 1%
[7]
  total maximum brain concentration: 49.9 µM
  unbound maximum brain concentration: 649 nM
M1 [8]
  M1 PAM potency and efficacy in β-arrestin recruitment: comparable M1 PAM potency and efficacy
rats
  recognition memory, novel object recognition: dose-dependently enhanced recognition memory
hM1; 0.3 μM PAM
  fold shift in ACh potency vs DMSO control: 11 fold
hM1; 1.0 μM PAM
  fold shift in ACh potency vs DMSO control: 58 fold
hM1; 10 μM PAM
  fold shift in ACh potency vs DMSO control: 178 fold
SD rats
  reversal of amphetamine-induced hyperlocomotion (AHL): no effect
M1 [9]; hM1-CHO cells, ± SEM
  hACh Max (%), agonist: 56 ± 14%
M1 [9]; hM1 EC50 (μM), agonist, hM1-CHO cells
  EC50: 4.8 µM
M1 [9]; hM1 pEC50, agonist, hM1-CHO cells, ± SEM
  EC50: 4.68 µM
M1 [9]; human and rat M1
  fold weaker M1 agonist than 16: 7 fold
M1 [10]
  EC50: 214 nM
M1 [10]; PAM mode, hM1-CHO cells, EC20 acetylcholine, ± SEM
  hACh Max (%): 86±1%
M1 [11]
  displacement of orthosteric radioligand [3H]-NMS: slight inhibition of binding of the orthosteric radioligand at high concentrations; also recorded: weakly displaced
Mice [12]; 100 mg/kg
  adverse effects, Modified Irwin Toxicology Battery: no pronounced cholinergic effects
Mice [12]; listed as VU6004256, 100 mg/kg
  adverse effects, Modified Irwin Toxicology Battery: did not cause significant observable adverse effects
Rat M1 [13]; PAM mode, ± SEM
  rACh Max (%): 92 ± 4%
Rat M1 [13]; rM1 EC50 (nM), PAM mode
  EC50: 141 nM
Rat M1 [13]; rM1 pEC50, PAM mode, ± SEM
  EC50: 138 nM
Rat M1 [14]
  EC50: 3980 nM
Rat M1 [14]; agonist mode, rM1-CHO cells, ± SEM
  rACh Max (%), agonist: 68 ± 9%
Mice [15]
  reversal of amphetamine-induced hyperlocomotion (AHL): did not reverse AHL in mice
M1 [16]
  EC50: > 10000 nM

## CCCCCCOc1nsnc1C1=CCCN(C)C1 [xanomeline]
Mice [17]
  attenuation of amphetamine-induced activity in M4 knockout mice: absent
